{"source": "patent US20100093861A1", "about": "“TREATMENT OF INSULIN RESISTANCE OR DISEASES ASSOCIATED WITH INSULIN RESISTANCE” (Stevia ApS, priority 2006, published 2010)", "key": {"Beta2": {"tested_on": "Beta2", "assay": "Gene expression in islets from diabetic KKAy-mice, real time RT-PCR (Example 2): Beta2", "format": "in vivo", "conditions": "islets of KKAy-mice after nine weeks treatment, normalized to 18S rRNA", "experimental": "A the end of the nine week period of the in vivo study in example 1 RNA was purified from Islets, muscle, liver and fat from the three experimental groups, using standard techniques as described in Kiergen, RNA easy.\nGene expression of PDX-1, IRS1, Beta2, 11beta-HSD-1, Akt1, C/EBP-alpha, CPT1, GLUT2, IGF1, IR and Ins1 was measured with Real time RT-PCR using Taq Man Assays normalized to 18S rRNA, using the standard protocol (ABI, USA). All reagents were obtained from (ABI, USA). All probes are standard probes obtainable from ABI, USA, under the specific probe code number, given in respect of each gene."}, "Somatostatin": {"tested_on": "Somatostatin", "assay": "Affymetrix gene chip analysis of KKAy islets: Somatostatin", "format": "in vivo, mice", "conditions": "ISV vs. KKAy control islets, 9 weeks", "experimental": "(§1) cRNA preparation and in vitro transcription: In total 6 Affymetrix arrays MOE430 2.0 probe array cartridge were used i.e. for analysis of 3 replicas for the KKAy control group and the ISV group, respectively. Each of the 6 samples consisted of pooled RNA from 3-4 KKAy mice. Preparation of target for hybridization was prepared from 340 ng of total RNA using MessageAmp™ II aRNA Amplification Kits (Ambion), according to the manufacturers instructions. Arrays were hybridised and scanned as described elsewhere (Kruhoffer et al., 2005)."}, "11-beta-HSD-1": {"tested_on": "11-beta-HSD-1", "assay": "Relative real time RT-PCR in islets of KKAy mice (Example 3): 11-beta-HSD-1", "format": "in vivo", "conditions": "9 weeks", "experimental": "Islets were isolated by the collagenase digestion technique. In brief, the animals were anesthetized with pentobarbital (50 mg/kg intraperitoneally) and midline laparotomy was performed. The pancreas was retrogradely filled with 3 mL ice-cold Hanks balanced salt solution (([HBSS] Sigma Chemical, St Louis, Mo.) supplemented with 0.3 mg/ml collagenase Boehringer Mannheim GmbH, Germany). The pancreas was subsequently removed and incubated for 19 minutes at 37° C. After rinsing in HBSS, the islets were handpicked under a stereomicroscope and immediately transferred to a tubes containing 1 ml Trizol (Gibco/Invitrogene, Calsbad, Calif., USA). The islets isolated from the NMRI mice were incubated overnight at 37° C. and 95% normal atmosphere/5% CO2 in 10 ml RPMI 1640 containing 11.1 mmol/L glucose supplemented with penicillin G and 100 μg/mL streptomycin (all Gibco/Invitrogene, Calsbad, Calif., USA).\nFor each group, islets from 3-4 mice (180-200 islets) were pooled in 1 ml Trizol reagent (Gibco/lnvitrogene, Calsbad, Calif., USA) before RNA purification. Total RNA was extracted according to the manufactures' instructions. RNA was quantified by measuring absorbance at 260 and 280 nm. The quality of the RNA was checked by the Agilent 2100 bioanalyzer (Agilent, Santa Clara, USA). […]"}, "Nkx6-1": {"tested_on": "Nkx6-1", "assay": "Affymetrix gene chip analysis of KKAy islets: Nkx6-1", "format": "in vivo, mice", "conditions": "ISV vs. KKAy control islets, 9 weeks", "experimental": "as §1"}}}
{"smiles": "C[C@@]12CC[C@@H]3[C@@](CC[C@H]4[C@@]3(C)CCC[C@@]4(C)C(=O)O)(CC1=O)C2", "note": "(single isomer, unassigned; ent-16) [ISV, ent-16-ketobeyeran-19-oic acid]", "values": [{"measurement": "increased expression of beta2 compared to standard diet", "setting": "Beta2", "value": 60, "unit": "%"}, {"measurement": "array: increased expression in Somatostatin", "setting": "Somatostatin", "value": 2.3, "unit": "fold"}, {"measurement": "down regulation of 11-beta-HSD-1", "setting": "11-beta-HSD-1; RT-PCR", "value": 2.5, "unit": "fold"}, {"measurement": "decreased expression of 11-beta-HSD-1, ISV group vs. control group", "setting": "11-beta-HSD-1; normalized to 18S rRNA", "value": 61, "unit": "%"}, {"measurement": "array: increased expression in Nkx6-1", "setting": "Nkx6-1", "value": 2.64, "unit": "fold"}]}
